Assay results as given in patent US20230339968A1, “KRAS Gl2C INHIBITORS” (Eli Lilly and Company, priority 2019, published 2023).
Where two headings read alike, the source gives them in different places.

What was measured:
[1] = test system: H1792 (lung); assay: CellTiterGlo Cell Proliferation Assay (2D), H1792; type: cell-based; settings: Homo sapiens, NCI-H1792, 96 hours
Experimental: (§1) The purpose of this assay is to evaluate the growth of KRas G12C mutant tumor lines following treatment with a test compound. A panel of tumor cell lines harboring KRas G12C or other KRas mutations are collected (Table 25). All cell lines are from ATCC or other sources indicated.
(§2) Typically cells are cultured in RPMI1640 or Dulbecco's modified Eagle's medium (DMEM, GIBCO) supplemented with 10% FBS (GIBCO, Invitrogen). […] The cells are treated with compound for 96 hours, and then are analyzed for viability using the CellTiterGlo® Luminescent Cell Viability Assay® (Promega #G7572 for 2D) according to manufacturer's instructions and an EnVision™ plate reader. Nonlinear regression and sigmoidal dose-response curves are used to calculate the half maximal inhibitory concentration (IC50) with GraphPad Prism 4® software.

[2] = test system: H23 (lung); assay: CellTiterGlo Cell Proliferation Assay (2D), H23; type: cell-based; settings: 96 hours
Experimental: as §1, §2

[3] = test system: A549 (lung); assay: CellTiterGlo Cell Proliferation Assay (2D), A549 (KRas G12S); type: cell-based; settings: Homo sapiens, A549 (lung, KRas G12S), 2D, 96 hours; for inhibition at 10 µM: read-out: % inh. @ 10 μM
Experimental: as §1, §2

[4] = test system: HCC44 (lung); assay: CellTiterGlo Cell Proliferation Assay (2D), HCC44; type: cell-based; settings: Homo sapiens, 96 hours
Experimental: as §1, §2

[5] = test system: MiaPaca-2 (pancr); assay: CellTiterGlo Cell Proliferation Assay (2D), MiaPaca-2; type: cell-based; settings: Homo sapiens, MIA PaCa-2, 96 hours
Experimental: as §1, §2

[6] = test system: KYSE-410 (esoph); assay: CellTiterGlo Cell Proliferation Assay (2D), KYSE-410; type: cell-based; settings: Homo sapiens, 96 hours
Experimental: as §1, §2

[7] = test system: H2122 (lung); assay: CellTiterGlo Cell Proliferation Assay (2D), H2122; type: cell-based; settings: Homo sapiens, NCI-H2122, 96 hours
Experimental: as §1, §2

[8] = test system: H1373 (lung); assay: CellTiterGlo Cell Proliferation Assay (2D), H1373; type: cell-based; settings: Homo sapiens, NCI-H1373, 96 hours
Experimental: as §1, §2

[9] = target: active KRas (Homo sapiens, UniProt P01116, G12C); assay: In vivo target inhibition, active KRas ELISA of tumor lysates, lung cancer H358 xenograft model; set-up: from tissue; host or cells: H358 xenograft tumours grown subcutaneously in nude female mice; settings: NCI-H358, mouse; for inhibition at 30 mg/kg: H358 model, single dose 30 mg/kg, read-out: % Inhibition of Active Ras
Chain of active KRas (P01116 1-188 isoform P01116-2 G12C): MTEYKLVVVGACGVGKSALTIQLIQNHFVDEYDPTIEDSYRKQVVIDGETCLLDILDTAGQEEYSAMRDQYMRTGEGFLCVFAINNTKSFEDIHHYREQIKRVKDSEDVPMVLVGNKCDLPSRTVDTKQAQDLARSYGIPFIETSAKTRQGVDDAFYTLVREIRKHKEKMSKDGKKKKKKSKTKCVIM
Experimental: The purpose of these assays is to evaluate in vivo target inhibition of an orally administered test compound. Human lung cancer H358 cells, or pancreatic cancer MiaPaca-2 cells, are implanted into nude mice xenograft tumor models. H358 or MiaPaca-2 cells (10×106 in a 1:1 Matrigel® mix, 0.2 mL total volume) are implanted by subcutaneous injection in hind leg of nude female mice (Harlan Laboratories). […] Treatment is initiated with oral administration (gavage) of a test compound or vehicle (20% Captisol®, 25 mM phosphate, pH 2.0 in 0.2 mL) when the tumor size reaches approximately 300 mg.
For in vivo target inhibition and PD analysis, tumors are ground by mortar and pestle on dry ice and tumor fragments are added to 800 μL of lysis buffer containing 1% Triton™ X-100, 25 mM Tris pH7.5, 150 mM sodium chloride, 1 mM EDTA, and 1 mM EGTA with Halt protease and phosphatase inhibitor cocktail (Thermo Scientific, cat. no. 1861281) in lysing matrix D tubes (MP Biomedical®, cat. no. 6913-500) with one additional large bead (MP Biomedical® ¼″ ceramic sphere bead cat. no. 6540-412) per tube. Tumor fragments are homogenized in a Thermo Bio101® fast prep (FP120) at setting 4 for […] while cold for a total of 2 times. Lysates are spun at 14,000 rpm for 10 minutes at 4° C. to clarify. Protein estimation is done on the lysate supernatant using a BioRad Dc® protein assay and lysates are diluted in complete lysis/binding buffer from the Ras GTPase Chemi ELISA Kit® (Active Motif, cat. no. 52097). The active KRas ELISA is performed as follows: glutathione-coated ELISA wells are incubated with diluted RAF1-GST in complete lysis/binding buffer for 1 hour at 4° C. with gentle agitation. Wells are washed 3 times with wash buffer and 100 μg of lysates are added to each well and incubated at ambient temperature for 1 hour with mild agitation. The wells are washed an additional 3 times, then primary antibody, diluted in antibody binding buffer, is added to each well. The plates are incubated for 1 hour. The wells are washed 3 more times before adding HRP-conjugated secondary antibody, diluted in antibody binding buffer, to each well. The plates are incubated at ambient temperature for 1 hour. ELISA wells are washed 4 times, chemiluminescent reagent is added and then luminescence is read. For pERK Meso Scale Discovery ELISA, 25 μg of protein containing 0.1% SDS is used; Meso Scale Discovery Whole Cell Lysate Kit for pERK is provided by Meso Scale Discovery.
The purpose of this assay is to evaluate the dose dependent in vivo target inhibition and pharmacodynamic effects in a lung cancer model. The test compound is dosed in lung cancer H358 mouse xenograft model at a dose range from 12.5 to 100 mg/kg. The tumor samples are collected 8 hours post a single dose. The tumor lysates are prepared and the inhibition of pERKand active KRas is measured as described above.
The purpose of this assay is to evaluate the time dependent in vivo target inhibition and pharmacodynamic effects in a lung cancer model. […] After a single dose, the tumor samples are harvested at 2, 4, 8, 12 and 24 hour post doing. The tumor lysates are prepared and the inhibition of pERK and active KRas is measured as described above.

[10] = test system: LXFA-983L (lung); assay: CellTiterGlo Cell Proliferation Assay (2D), LXFA-983L; type: cell-based; settings: 96 hours
Experimental: as §1, §2

[11] = test system: SW756 (cervix); assay: CellTiterGlo Cell Proliferation Assay (2D), SW756; type: cell-based; settings: Homo sapiens, 96 hours
Experimental: as §1, §2

[12] = test system: H358 (lung); assay: CellTiterGlo Cell Proliferation Assay (2D), H358; type: cell-based; settings: Homo sapiens, NCI-H358, 96 hours
Experimental: as §1, §2

[13] = test system: LU99 (lung); assay: CellTiterGlo Cell Proliferation Assay (2D), LU99; type: cell-based; settings: Homo sapiens, Lu-99, 96 hours
Experimental: as §1, §2

[14] = test system: SW1573 (lung); assay: CellTiterGlo Cell Proliferation Assay (2D), SW1573; type: cell-based; settings: Homo sapiens, 96 hours
Experimental: as §1, §2

Row | SMILES | IC50 [1] [nM] | inhibition at 10 µM [1] [%] | IC50 [2] [nM] | inhibition at 10 µM [2] [%] | IC50 [3] [nM] | inhibition at 10 µM [3] [%] | IC50 [4] [nM] | inhibition at 10 µM [4] [%] | IC50 [5] [nM] | inhibition at 10 µM [5] [%] | IC50 [6] [nM] | inhibition at 10 µM [6] [%] | IC50 [7] [nM] | inhibition at 10 µM [7] [%] | IC50 [8] [nM] | inhibition at 10 µM [8] [%] | IC50 [10] [nM] | inhibition at 10 µM [10] [%] | IC50 [11] [nM] | inhibition at 10 µM [11] [%] | also measured
1 | C=CC(=O)N1CCN2C(=O)c3cc(F)c(-c4cccc5sc(N)c(C#N)c45)c(Cl)c3OCC[C@H]2C1 [Example 34, 4-[(13aS)-10-Chloro-8-fluoro-6-oxo-2-prop-2-enoyl-1,3,4,12,13,13a-hexahydropyrazino[2,1-d][1,5]benzoxazocin-9-yl]-2-amino-benzothiophene-3-carbonitrile] | 4350 | 56.7 | 26 | 96.8 | > 10000 | 18.8 | > 10000 | 41 | 10 | 82.9 | > 10000 | 63.2 | 660 | 78.1 | 6740 | 67.7 | > 10000 | 68.8 | 1080 | 56.9 | inhibition at 12.5 mg/kg ([9]; po, H358 xenograft mice, single oral dose 12.5 mg/kg, 8 hours, read-out: % Inhibition Active RAS): 14.2%; inhibition at 25 mg/kg ([9]; po, H358 xenograft mice, single oral dose 25 mg/kg, 8 hours, read-out: % Inhibition Active RAS): 35.1%; inhibition at 50 mg/kg ([9]; po, H358 xenograft mice, single oral dose 50 mg/kg, 8 hours, read-out: % Inhibition Active RAS): 31.5%; inhibition at 100 mg/kg ([9]; po, H358 xenograft mice, single oral dose 100 mg/kg, 8 hours, read-out: % Inhibition Active RAS): 69.3%; IC50 [12]: 2 nM; inhibition at 10 µM [12]: 95.6%; IC50 [13]: 201 nM; inhibition at 10 µM [13]: 91.9%; IC50 [14]: 7820 nM; inhibition at 10 µM [14]: 60.8%
2 | C=CC(=O)N1CCN2C(=O)c3cc(F)c(-c4ccc(F)c5sc(N)c(C#N)c45)c(Cl)c3OC[C@H]2C1 [Example 36, 4-[(4aR)-7-Chloro-9-fluoro-11-oxo-3-prop-2-enoyl-2,4,4a,5-tetrahydro-1H-pyrazino[2,1-c][1,4]benzoxazepine-8-yl]-2-amino-7-fluoro-benzothiophene-3-carbonitrile] | 2030 | 97.4 | 100 | 96.7 | 9500 | 62.1 | 2840 | 80.6 | 81 | 79.6 | > 10000 | 43.1 | 1360 | 92.8 | 5490 | 82.6 | > 10000 | 88 | 2520 | 58.1 | inhibition at 30 mg/kg ([9]; 2 h): 72.6%; inhibition at 30 mg/kg ([9]; 4 h): 72.4%; inhibition at 30 mg/kg ([9]; 8 h): 88.5%; inhibition at 30 mg/kg ([9]; 24 h): 43.2%; IC50 [12]: 8 nM; inhibition at 10 µM [12]: 89.1%; IC50 [13]: 349 nM; inhibition at 10 µM [13]: 99.1%; IC50 [14]: 9350 nM; inhibition at 10 µM [14]: 54.3%
3 | C=CC(=O)N1CCN2C(=O)c3cc(Cl)c(-c4ccc(F)c5sc(N)nc45)c(Cl)c3OCC[C@H]2C1 (atropisomer, axis not shown) [Example 1, (13aS)-9-(2-Amino-7-fluoro-1,3-benzothiazol-4-yl)-8,10-dichloro-2-prop-2-enoyl-1,3,4,12,13,13a-hexahydropyrazino[2,1-d][1,5]benzoxazocin-6-one] | 3010 | 63.6 | 45 | 98.2 | > 10000 | 19.1 | > 10000 | 46.4 | 18 | 77.2 | 5840 | 64.6 | 1170 | 80.4 | 1810 | 68.8 | 3610 | 78.6 | 1630 | 51.9 | IC50 [12]: 4 nM; inhibition at 10 µM [12]: 94.5%; IC50 [13]: 303 nM; inhibition at 10 µM [13]: 89.9%; IC50 [14]: > 10000 nM; inhibition at 10 µM [14]: 35%
